# Data: US9801961B2, “2-phenylimidazo[1,2-a]pyrimidines as imaging agents” (Hoffmann-La Roche Inc., priority 2013, dated 2017)
# Test system: native tau aggregates
# Assay: TAU radioligand in vitro displacement assay ([3H]T808 autoradiography on human AD brain sections)
# Assay type: binding
# Settings: compound 10 nM, radioligand [3H]T808 10 nM, 50 mM Tris pH 7.4, room temperature, 30 min
# In short: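 Human AD brain cryosections (10 μm) co-incubated with [3H]T808 (10 nM) and test compound at various concentrations in 50 mM Tris pH 7.4, 30 min at room temperature, then washed at 4° C. Autoradiography after 5-day plate exposure. % displacement from ROI specific binding, white-matter signal subtracted as non-specific; cold T808 internal control.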
row,Structure (SMILES),% displacement of [3H]T808 (10 nM) at 10 nM
1,"FC1CCN(c2ccn3cc(-c4cccc(OC(F)(F)F)c4)nc3n2)CC1 [Example 15, 7-(4-Fluoropiperidin-1-yl)-2-[3-(trifluoromethoxy)phenyl]imidazo[1,2-a]pyrimidine]",14%
2,"Cc1cccc(-c2cn3ccc(N(C)C)nc3n2)c1 [Example 40, N,N-Dimethyl-2-(3-methylphenyl)imidazo[1,2-a]pyrimidin-7-amine]",51%
3,"Cc1cccc(-c2cn3ccc(N4CCCC4)nc3n2)c1 [Example 48, 2-(3-Methylphenyl)-7-pyrrolidin-1-ylimidazo[1,2-a]pyrimidine]",23%
4,"CN(C)c1ccn2cc(-c3ccsc3)nc2n1 [Example 85, N,N-Dimethyl-2-thiophen-3-ylimidazo[1,2-a]pyrimidin-7-amine]",35%
5,"CCN(CC)c1ccn2cc(-c3ccc(OC)cc3)nc2n1 [Example 67, N,N-Diethyl-2-(4-methoxyphenyl)imidazo[1,2-a]pyrimidin-7-amine]",19%

# Continued, values first:
row,% displacement of [3H]T808 (10 nM) at 10 nM,Structure (SMILES)
1,11%,"FCOc1ccc(-c2cn3ccc(NC4CC4)nc3n2)cc1 [Example 140, N-Cyclopropyl-2-(4-(fluoromethoxy)phenyl)imidazo[1,2-a]pyrimidin-7-amine]"
2,11%,"CNc1ccn2cc(-c3cccc(CO)c3)nc2n1 [Example 114, [3-[7-(Methylamino)imidazo[1,2-a]pyrimidin-2-yl]phenyl]methanol acetic acid adduct]"
